Data from publication PMC9775433 (Cancers, 2022).
“And” between values parts separate entries of the source, which are not always exact repeats. Equal entries are not always repeated.

Legend:
Type in all cases: in vivo, human
Conditions in all cases: individual patient
[1] = Tumor drug concentration in tumor needle biopsy at day 17 (LC-MS-MS)
Protocol: (§1) All tissue samples were immediately snap frozen (within 1 min) in liquid nitrogen and cryopreserved at −80 °C until the day of analysis.
(§2) Tissue biopsies were weighed accurately before analysis. Tissue homogenate was prepared by using a mechanical homogenizer. The tumor tissue was homogenized with the precellys lysing kit (bertin instruments®) in the Roche MagNA lyzer®. […] Tissue homogenate samples were directly analyzed.
(§3) Supplementary data S2 – Methods (Details)
(§4) samples; using a validated liquid chromatography–tandem mass spectrometry (LC-MS-MS).
(§5) The system consisted of an Acquity H‐Class UPLC system, coupled to a Xevo TQ‐S micro
(§6) tandem mass spectrometer. […]

[2] = Skin drug concentration in skin biopsy at day 17 (LC-MS-MS)
Protocol: as §1, §2, §3, §4, §5, §6

[3] = Plasma pharmacokinetics of high-dose intermittent sunitinib (LC-MS-MS, NONMEM)
Protocol: Study pharmacokinetic assessment in plasma: Ethylenediaminetetraacetic acid (EDTA) blood was collected pretreatment and subsequently at multiple time points in all patients (0, 2, 4, 6, 8, 10, and 24 h post-dose on day 1 for both time schedules and thereafter at days 3, 8, 10, 15, 17, and 22 for the once weekly schedule and at days 3, 15, 17, and 29 for the once every 2 weeks schedule). All samples were centrifuged within 1 h after collection at 2000 g for 10 min (at 4 degrees Celsius (°C)), plasma was separated and stored at −80 °C until the day of analysis.
Since there is no evidence for the exact relationship between plasma and tumor concentrations, we chose to use the concentration–time data calculated by NONMEM for Cmax, the average concentration over time (Caverage) and the trough concentrations just before the next dose was administered (Ctrough) based on rich PK-data of each individual patient. […] Inter-occasion variability in bioavailability and absorption duration were allowed in the model. The control stream of the final model and the goodness-of-fit plots are supplied in the Supplementary Material (Supplementary Data S3). The developed model was used to derive the individual predictions for the Cmax, Caverage, and Ctrough. SUM concentrations were calculated.
as §3, §4, §5, §6

In the case of `CCNCCNC(=O)c1c(C)[nH]c(/C=C2\C(=O)Nc3ccc(F)cc32)c1C` [N-desethyl sunitinib], the “Tumor - N-desethyl Sunitinib concentration” value (from here on “Tumor”) ([1]; sunitinib 300 mg O1W) is reported as 589 µg/L and 12025 µg/L and 812 µg/L and 1101 µg/L and 1077 µg/L and 2934 µg/L and 6513 µg/L and 22945 µg/L and 578 µg/L and 10356 µg/L and 342 µg/L and 767 µg/L, the “Tumor” value ([1]; sunitinib 400 mg O2W) is reported as 400 µg/L and the “Tumor” value ([1]; sunitinib 700 mg O2W) is reported as 13436 µg/L and 2500 µg/L and 19730 µg/L and 2387 µg/L and 4534 µg/L and 1675 µg/L and 17843 µg/L and 555 µg/L. For the same compound, the “Tumor” value ([1]; sunitinib 800 mg O2W) was 330 µg/L, the “Skin - N-desethyl Sunitinib concentration” value (from here on “Skin”) ([2]; sunitinib 300 mg O1W) was 1288 µg/L and 1388 µg/L and 267 µg/L and 1355 µg/L and 529 µg/L and 224 µg/L and 648 µg/L and 865 µg/L and 1498 µg/L and 621 µg/L and 1842 µg/L and 2193 µg/L and 488 µg/L and the “Skin” value ([2]; sunitinib 300 mg O2W) was 124 µg/L and 218 µg/L. For the same compound, the “Skin” value ([2]; sunitinib 400 mg O1W) was 406 µg/L, the “Skin” value ([2]; sunitinib 700 mg O2W) was 2743 µg/L and 221 µg/L and 168 µg/L and 987 µg/L and 5179 µg/L and 572 µg/L and 425 µg/L and 429 µg/L and 380 µg/L and 326 µg/L and 5652 µg/L and 1279 µg/L and 460 µg/L and 1021 µg/L and 1060 µg/L and 896 µg/L and the “Skin” value ([2]; sunitinib 800 mg O2W) was 194 µg/L. The “Cmax plasma - N-desethyl Sunitinib concentration” value (shortened to “Cmax plasma”) ([3]; sunitinib 200 mg O1W) was 68 ng/mL and 40 ng/mL and 58 ng/mL, the “Cmax plasma” value ([3]; sunitinib 300 mg O1W) was 29 ng/mL and 34 ng/mL and 28 ng/mL and 22 ng/mL and 51 ng/mL and 15 ng/mL and 94 ng/mL and 32 ng/mL and 21 ng/mL and 31 ng/mL and 33 ng/mL and 23 ng/mL and 27 ng/mL and 43 ng/mL and 210 ng/mL and 63 ng/mL and 14 ng/mL and the “Cmax plasma” value ([3]; sunitinib 300 mg O2W) was 29 ng/mL and 7.49 ng/mL and 27 ng/mL. For the same compound, the “Cmax plasma” value ([3]; sunitinib 400 mg O1W) was 15 ng/mL and 26 ng/mL and 9.48 ng/mL and 22 ng/mL and 28 ng/mL and 25 ng/mL and 6.66 ng/mL and 44 ng/mL and 154 ng/mL and 57 ng/mL, the “Cmax plasma” value ([3]; sunitinib 400 mg O2W) was 33 ng/mL and 31 ng/mL and 28 ng/mL and 34 ng/mL and the “Cmax plasma” value ([3]; sunitinib 500 mg O2W) was 32 ng/mL and 29 ng/mL and 51 ng/mL. The “Cmax plasma” value ([3]; sunitinib 600 mg O2W) was 45 ng/mL and 41 ng/mL, the “Cmax plasma” value ([3]; sunitinib 700 mg O2W) was 26 ng/mL and 52 ng/mL and 24 ng/mL and 65 ng/mL and 55 ng/mL and 51 ng/mL and 21 ng/mL and 30 ng/mL and 40 ng/mL and 59 ng/mL and 35 ng/mL and 48 ng/mL and 36 ng/mL and 34 ng/mL and 23 ng/mL and 84 ng/mL and 164 ng/mL and 150 ng/mL and 85 ng/mL and 68 ng/mL and 54 ng/mL and 76 ng/mL and 125 ng/mL and 128 ng/mL and 200 ng/mL and 57 ng/mL and the “Cmax plasma” value ([3]; sunitinib 800 mg O2W) was 55 ng/mL and 84 ng/mL and 13 ng/mL and 14 ng/mL and 29 ng/mL.
